# Measured values as given in patent publication US6573050B1, “Treatment, diagnosis and evaluation of anti-cancer therapy resistance in melanoma” (Sunnybrook & Women's College Health Sciences Centre, priority 1999, dated 2003).
# Like-named read-outs stand apart in the source and are kept apart here.
# Tests used:
# [1] = tested on: Clone E and Clone G cells vs WM35 cells
# Protocol: (§8) Cytotoxicity Assay. The number of viable cells following a treatment was assessed using the CellTiter™ 96 Aqueous Non-Radioactive MTS Cell Proliferation Assay (Promega). Briefly, 1×10^4 cells/well were plated in 96-well plates, allowed to attach overnight and then administered therapeutic agents at various levels for 24 hours. Four hours prior to harvest, MTS/phenazine methosulfate was added to the cells and the number of variable cells was determined by measuring the quantity of formazan by spectrophotometric analysis at 490 nm.
# (§9) The indicated cell lines were cultured in 96 well plates at a density of 8×10^3 cells per well and treated for 24 hours with either A) carboplatin; B) taxol; or C) methotrexate, at the indicated concentrations. Cell viabilities were determined using the MTS assay (Promega), measuring the cellular conversion of the tetrazolium salt, MTS, into formula which can be quantified at 490 nm.
# WM35 cells [2] = experiment: MTS cytotoxicity assay, CDDP treatment; format: cell-based, human; details: 15 μM CDDP, 24 hour incubation, mean ± SEM, n=3
# Protocol: (§1) Cells and Culture Conditions. All human melanoma cell lines were generously provided by Dr. Meenhard Herlyn (Wistar Institute, Philadelphia, Pa.). The CDDP-resistant variants of WM35 (designated as Clone A to Clone I) were established by retroviral insertioual mutagenesis of WM35 cells as described previously (Lu et al. (1995) Cancer Res. 55:1139-1145). Cells were routinely maintained in RPMI 1640 (Life Technologies) supplement with 5% FBS (Life Technologies) at 37° C. in a humidified atmosphere of 95% air; 5% CO2.
# (§2) To determine the correlation between levels of TYRP2 expression and CDDP resistance, the cells assessed in the UV(B) survival assay as shown in Table 2 were further assessed for resistance to CDDP. Cells were plated in 96-well plates and treated with 15 μM CDDP. After a 24 hour incubation, cell viability was determined by the MTS assay.
# [3] = tested on: Clone E and Clone G cells vs WM35 cells; experiment: CDDP resistance of retrovirally derived clones compared to parental WM35; format: cell-based, human; details: approximately
# Protocol: as §1
# This technique of retroviral insertional mutagenesis was applied on WM35 cells, an early stage CDDP sensitive human melanoma cell line. WM35 cells were infected with a replication defective amphotrophic murine stein cell virus (MSCV) retrovirus and the pooled cells were subsequently selected for CDDP resistance.
# From this technique, nine independently derived clones, Clone A to Clone I, were obtained. […] Since changes in tumor sensitivities in the range of 2-5 fold can account for loss of tumor responsiveness to anti-cancer therapeutic drugs, this difference could be clinically significant (Kuroda et al. (1991) Int. J. Cancer 47:732-737).
# WM9 derived tumors = experiment: WM9 tumors in immunodeficient CD-1 nude mice, CDDP treatment; format: in vivo; details: CDDP 2 mg/kg/2 days
# Protocol: (§3) In order to determine the significance of TYRP2-mediated CDDP resistance in vivo, tumors were generated in immunodeficient CD-1 mice by subcutaneous injection of 2×10^6 cells of either MeWo or WM9. WM35 cells were not used for in vivo studies because they lack tumorigenicity (Bani et al. (1996) Cancer Res. 56:3075-3086). […] Mice bearing these tumors were treated with CDDP three times weekly at a dose of 2 mg/kg.
# FIG. 13 illustrates the correlation between TYRP2 expression and CDDP resistance in vivo in WM9 cells. Tumors were generated in immunodeficient CD-1 nude mice by subdermally injecting WM9 cells. […] By day 18 of treatment, the tumors in 2 of 5 mice had completely disappeared.
# WM9 cells = experiment: MTS cytotoxicity assay, CDDP treatment; format: cell-based, human; details: 15 μM CDDP
# Protocol: as §1
# (§4) FIG. 9 illustrates the response of melanoma cell lines to CDDP treatment. Each of the cell lines indicated were plated in 96-well plates at a density of 1×10^5 cells/well and treated with 15 μM CDDP for 24 hours. Percentage of viable cells were determined by the MTS assay. […] The levels TYRP2 expression in these cells directly correlated with their resistance to CDDP treatment (15 μM CDDP, 24 hours). For example, the cell line WM9, which expresses very low levels of TYRP2 was very sensitive to CDDP treatment (<20% of cells survived). Conversely, the cell lines WM451 and MeWo, for example, which express high levels of TYRP2 were resistant to CDDP treatment (approximately 80% of cells survived).
# as §2
# [4] = tested on: Clone E cells (CDDP-resistant variant of WM35); experiment: MTS cytotoxicity assay, CDDP treatment; format: cell-based, human; details: 15 μM CDDP
# Protocol: as §1, §4, §2
# MeWo cells = experiment: MTS cytotoxicity assay, CDDP treatment; format: cell-based, human; details: 15 μM CDDP
# Protocol: as §1, §4, §2
# [5] = tested on: XR9 cells (x-ray resistant variant of WM35); experiment: MTS cytotoxicity assay, CDDP treatment; format: cell-based, human; details: 15 μM CDDP, 24 hour incubation, mean ± SEM, n=3
# Protocol: Gamma radiation resistant mutant cell lines were selected using retroviral insertional mutagenesis, with selection based on resistance to gamma radition. X-ray resistant mutant cell lines, designated as “XR” were established.
# as §2
# MeWo derived tumors = experiment: MeWo tumors in immunodeficient CD-1 nude mice, CDDP treatment; format: in vivo; details: CDDP 2 mg/kg/2 days
# Protocol: as §3
# FIG. 12 illustrates the correlation between TYRP2 expression and CDDP resistance in vivo. Tumors were generated in immunodeficient CD-1 nude mice by subdermally injecting MeWo cells.
# [6] = tested on: WM35 cells vs Clone E cells; experiment: DNA fragmentation assay, Cell Death Detection ELISA; format: cell-based, human; details: 15 μM CDDP, 18 hours
# Protocol: DNA Fragmentation Assay. Levels of apoptosis were determined by quantifying DNA fragmentation using the Cell Death Detection ELISA Plus kit (Boehringer Mannheim). Briefly, cells were plated in 96-well plates at a density of 1×10^4 cells/well and allowed to attach overnight. Cells were treated with 15 μM CDDP for 18 hours and then lysed. Cell lysates were transferred to streptavidin-coated plates and used for ELISA analysis using anti-bistone-biotin and anti-DNA POD antibodies.
# FIG. 2 illustrates DNA fragmentation analysis by ELISA using antibodies that recognize mono- and oligonucleotide fragments. Mono- and oligo-nucleosomes in the DNA of WM35 cells treated with 15 μM CDDP for 18 hours, were detected with a Cell Death ELISA Detection Kit (Boehringer Mannheim). The production of DNA 180 bp multimers was approximately 5 times greater in WM35 cells than in Clone E cells.
# WM451 cells = experiment: MTS cytotoxicity assay, CDDP treatment; format: cell-based, human; details: 15 μM CDDP, 24 hours, MTS assay (FIG. 9)
# Protocol: as §1, §4
# WM1341B cells = experiment: MTS cytotoxicity assay, CDDP treatment; format: cell-based, human; details: 15 μM CDDP, 24 hours, MTS assay (FIG. 9)
# Protocol: as §1, §4
# WM373 cells = experiment: MTS cytotoxicity assay, CDDP treatment; format: cell-based, human; details: 15 μM CDDP, 24 hours, MTS assay (FIG. 9)
# Protocol: as §1, §4
# 1552C cells = experiment: MTS cytotoxicity assay, CDDP treatment; format: cell-based, human; details: 15 μM CDDP, 24 hours, MTS assay (FIG. 9)
# Protocol: as §1, §4
# Clone E cells = experiment: PARP cleavage, Western blot (apoptosis); format: cell-based, human; details: 15 μM CDDP, up to 24 hours
# Protocol: (§5) SDS-PAGE and Western Blot Analysis. Cell lysates were prepared using lysis buffer consisting of 50 mM Tris, pH 7.4, 50 mM NaCl, 2 mM MgCl2, 1 mM EDTA, 05% IDEPAL CA-630 and protease inhibitors (0.1 mM PMSF, 100 μM sodium vanadate, 20 μg/ml leupeptin, 20 mM […], 1 mM benzamide). Protein concentrations were determined by the Bradford assay (BioRad Laboratories) and equivalent quantities of protein (25 μg) were resolved by SDS-polyacrylamide gel electrophoresis (Laemmli (1970) Nature, 227, 680-685). […] Membranes were then incubated with a horseradish-peroxidase conjugated goat anti-rabbit antibody (1:5000 dilution) and immunoreactive sites were detected by enhanced chemiluminescence (Amersham). […]
# (§6) The mechanism of action of CDDP, as well as other DNA alkylating agents ultimately involves generation of DNA damage and subsequently the induction of apoptosis. In order to determine if the increased resistance to CDDP in the retrovirally derived clones was associated with a reduction in CDDP-induced apoptosis, the levels of apoptosis in one of these clones (Clone E) relative to its parental WM35 cells were determined following treatment with 15 μM CDDP.
# (§7) Increased cleavage of poly-ADP-ribose-polymerase (PARP) from the 116 kDa to the smaller 84 kDa subunit in WM35 cells was detected as early as 6 bours following 15 μM CDDP treatment. […]
# WM35 cells [7] = experiment: PARP cleavage, Western blot (apoptosis); format: cell-based, human; details: 15 μM CDDP, as early as
# Protocol: as §5, §6, §7
# [8] = tested on: Clone E and Clone G cells vs WM35 cells; experiment: Cross resistance of CDDP-resistant clones, MTS assay; details: 24 hours treatment, various concentrations, MTS assay (FIG. 3)
# Protocol: as §8, §9
# [9] = 24 hour incubation, MTS assay, mean ± SEM, n=3
structure (smiles),measurement,setting,value
CN(Cc1cnc2nc(N)nc(N)c2n1)c1ccc(C(=O)N[C@@H](CCC(=O)O)C(=O)O)cc1 [methotrexate],resistance of Clone E and Clone G to cytotoxic effects compared to WM35 cells,[1],more resistant
"N.N.[Cl][Pt][Cl] [CDDP, cis-diamminedichloroplatinum(II)]",% Survival,WM35 cells [2],52.6 ± 4.4%
same,increase in CDDP resistance compared to parental WM35 cells,[3],2 to 3 fold
same,growth rates of tumors relative to saline treated controls,WM9 derived tumors,significant reduction in growth rates
same,mice whose tumors had completely disappeared,WM9 derived tumors; by day 18 of treatment,2 of 5
same,% Survival,WM9 cells; [9],13.8 ± 1.6%
same,% of cells survived,"WM9 cells; 24 hours, MTS assay (FIG. 9)",< 20%
same,% Survival,[4]; [9],77.4 ± 6.7%
same,survival compared to WM35 cells,"[4]; 24 hours, MTS assay (FIG. 9)",substantially higher survival
same,% Survival,MeWo cells; [9],77.0 ± 5.3%
same,% of cells survived,"MeWo cells; 24 hours, MTS assay (FIG. 9)",approximately 80%
same,% Survival,[5],82.4 ± 1.7%
same,"growth rates of tumors, CDDP treated vs saline treated mice",MeWo derived tumors,did not differ
same,"production of DNA 180 bp multimers, WM35 cells relative to Clone E cells",[6],approximately 5 times
same,% of cells survived,WM451 cells,approximately 80%
same,survival compared to WM35 cells,WM1341B cells,substantially higher survival
same,survival compared to WM35 cells,WM373 cells,substantially higher survival
same,sensitivity to CDDP treatment,1552C cells,highly sensitive
same,increased levels of PARP cleavage,Clone E cells,not evident
same,time at which increased PARP cleavage (116 kDa to 84 kDa subunit) was detected,WM35 cells [7],6 bours
N.N.O=C([O-])C1(C(=O)[O-])CCC1.[Pt+2] [carboplatin],resistance of Clone E and Clone G to cytotoxic effects compared to WM35 cells,[8],more resistant
CC(=O)O[C@H]1C(=O)[C@@]2(C)[C@H]([C@H](OC(=O)c3ccccc3)[C@]3(O)C[C@H](OC(=O)[C@H](O)[C@@H](NC(=O)c4ccccc4)c4ccccc4)C(C)=C1C3(C)C)[C@]1(OC(C)=O)CO[C@@H]1C[C@@H]2O [taxol],resistance of Clone E and Clone G to cytotoxic effects compared to WM35 cells,[1],equally sensitive
